Measurements as given in patent US9175013B2, “Fused aminodihydrothiazine derivatives” (Eisai R&D Management Co., Ltd., priority 2011, dated 2015).
Like-named read-outs stand apart in the source and are kept apart here. One block for each compound: values may come before it.

Tests used:
[1] = TASTPM mice, cited from earlier work; for brain concentration: oral dose of 250 mg/kg
Aβ40 = details: TASTPM mice, cited from earlier work
BACE-1 = BACE-1 (Homo sapiens, UniProt P56817); details: cited from earlier work
BACE-1, sequence (P56817 46-501, species assumed): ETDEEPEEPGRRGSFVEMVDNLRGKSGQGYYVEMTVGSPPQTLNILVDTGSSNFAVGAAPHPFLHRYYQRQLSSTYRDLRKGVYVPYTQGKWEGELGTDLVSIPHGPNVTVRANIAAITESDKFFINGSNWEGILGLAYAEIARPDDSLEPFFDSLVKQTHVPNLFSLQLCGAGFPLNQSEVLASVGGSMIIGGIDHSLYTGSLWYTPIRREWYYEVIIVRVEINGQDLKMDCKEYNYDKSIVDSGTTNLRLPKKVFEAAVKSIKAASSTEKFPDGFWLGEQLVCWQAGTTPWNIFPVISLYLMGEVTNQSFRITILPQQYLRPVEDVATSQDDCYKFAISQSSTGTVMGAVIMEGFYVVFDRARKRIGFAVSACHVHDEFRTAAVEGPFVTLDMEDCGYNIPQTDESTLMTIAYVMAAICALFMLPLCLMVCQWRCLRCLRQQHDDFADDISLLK

[2] = system: Aβ peptide production in rat primary neuronal culture; assay: In vitro cellular assay: quantification of Aβ peptide in culture of neurons from rat fetus brain; assay type: cell-based, Wistar rat; details: Primary cortical neuron; Aβ ELISA, rat primary cortical neurons; Aβ species (x-40 or x-42) not given; read-out: IC50
Experimental: Quantification of Aβ Peptide in Culture of Neurons from Rat Fetus Brain
Primary neuronal cultures were prepared from the cerebral cortex of embryonic day 18 Wistar rats (Charles River, UK). Specifically, the embryos were aseptically removed from pregnant rats under ether anesthesia. The brain was isolated from the embryo and immersed in HBSS (Sigma Aldrich #H9269) containing 10 mM HEPES (Gibco #15630-056). The cerebral cortex was collected from the isolated brain under a stereoscopic microscope. The cerebral cortex fragments collected were enzymatically treated in an enzyme solution containing 0.05% trypsin-EDTA solution (GIBCO, #25300) at 37° C. for 20 minutes to disperse the cells. The cells were then washed twice and then gently resuspended in Neurobasal medium (Gibco #21103) supplemented with 2% B27 supplement (GIBCO #17504-044), 0.5 mM L-glutamine (GIBCO #25030), 1×N2 (GIBCO #17502-048), 100 μg/ml Pen/Strep (GIBCO 15140-122) and 5% heat inactivated FCS (PAA #A15-701). The cell dispersion was filtered through a 40-μm nylon mesh (BD Falcon #352340) to remove the remaining cell mass, and thus a neuronal cell suspension was obtained. The neuronal cell suspension was diluted with the medium above and then plated in a volume of 100 μL/well at an initial cell density of 3.25×10^5 cells/ml in poly-D-lysine coated 96-well culture plate (Greiner #655940). The plated cells were cultured in the culture plate at 37° C. in 5% CO2-95% air for 24 hrs. The total amount of the medium was replaced with ‘assay Neurobasal medium’ (as above excluding heat inactivated FCS), and then the cells were cultured for a further five days.
The drug was added to the culture plate on Day 6 of culture as follows. 8 point compound serial dilutions were generated in DMSO at a concentration of ×1000 that of the final assay concentration (FAC). Compound solutions were then prepared by adding 999 ul of ‘Assay Neurobasal media’ (as described in above section) to 1 ul of DMSO compound stock. The total amount of the medium was removed from each of the cell plate wells, and […] of ‘Assay Neurobasal media’ was added followed by […] of compound solution. The final DMSO concentration was 0.1%. […]
Cell survival was evaluated using an Alamar assay according to the following procedure. […]
Measurement of fluorescence intensity for each well was the carried out at 540/590 nm using a Pherastar plus plate reader (BMG labtech). […]
Human/Rat β Amyloid (42) ELISA Kit Wako (#290-62601) and Human/Rat P Amyloid (40) ELISA Kit Wako (#294-62501) from Wako Pure Chemical Industries, Ltd. were used for Aβ ELISA. […] The results were shown as percentage of the control groups and IC50 values for each compound were determined using four parameter logistic fit model using the XLFIT5 software package (IDBS).

SMILES: CCNc1cc(C(=O)N[C@@H](Cc2ccccc2)[C@H](O)CNCc2cccc(C(F)(F)F)c2)c(F)c(N2CCCCS2(=O)=O)c1 [GSK188909]
increase in CNS penetration by co-administration of a Pgp inhibitor ([1]; 250 mg/kg oral, with vs without GF120918): ~9 fold
brain concentration ([1]; Pgp inhibitor GF120918 dosed 5 hours before): 5.43 µM
brain concentration ([1]; no Pgp inhibitor): 0.62 µM
effect on brain Aβ40 levels (Aβ40; 250 mg/kg oral dose, absence of a Pgp inhibitor): did not have any effect
reduction in brain Aβ40 levels relative to vehicle-treated mice (Aβ40; 250 mg/kg oral, Pgp inhibitor co-administered 5 hours prior): 68%
IC50 (BACE-1): 5 nM

IC50 [2]: 7 nM
SMILES: COc1cnc(C(=O)Nc2cc(F)c(F)c([C@]34CO[C@H](C(F)F)[C@H]3CSC(N)=N4)c2)cn1 [Example 1, N-(3-((4aS,5S,7aS)-2-amino-5-(difluoromethyl)-4a,5,7,7a-tetrahydro-4H-furo[3,4-d][1,3]thiazin-7a-yl)-4,5-difluorophenyl)-5-methoxypyrazine-2-carboxamide]
